From patent publication US11246856B2, “Methods of treating resistant cancers” (University of Maryland, Baltimore, priority 2017, dated 2022)
Entries after “also recorded” stand apart in the source; their conditions may differ.

Legend:
A375 cells [1] = experiment: Cell proliferation, monolayer A375 cells; assay type: cell-based; settings: PLX4032 treatment, FIG. 1D
Protocol: (§1) A375, SK-MEL-5 and SK-MEL-28 cell lines were maintained in DMEM growth medium containing 10% FCS, 2 mM L-glutamine and 1 mM sodium pyruvate. The WM3248 cells were maintained in MCDB153:L15 (4:1) growth medium containing 2% FCS, […] insulin and 1.68 mM CaCl2. To create PLX4032-resistant cells, A375, SK-MEL-5, SK-MEL-28 and WM3248 cells were treated with […] in monolayer culture in growth medium for several weeks. The surviving cells were then expanded and cultured in increasing doses of PLX4032 up to […]. The resulting PLX4032-resistant cells, designated PLX4032-resistant (e.g., A375-PLX-R) were routinely maintained in the presence of […] PLX4032.

A375-PLX-R cells [2] = experiment: Cell proliferation, PLX4032-resistant A375-PLX-R cells; assay type: cell-based; settings: FIG. 1A
Protocol: as §1

A375 cells [3] = experiment: Immunoblot of signaling, cell cycle and apoptosis markers in A375 cells; assay type: cell-based
Protocol: (§2) Equivalent amounts of protein were electrophoresed on denaturing and reducing 10% polyacrylamide gels and transferred to nitrocellulose membrane. The membrane was blocked by 5% nonfat dry milk for one hour and incubated with 1:1000 primary antibody in 5% nonfat dry milk. Blots were rinsed in TBS-T and then incubated with secondary antibodies (1:5000) for 2 h. Secondary antibody binding was visualized using ECL Prime (Amersham) chemiluminescence detection technology. For immunostaining, cells were harvested, suspended in growth medium, and plated in LAB-TEK II Chamber Slide System. After 24 h, the cells were fixed with 4% paraformaldehyde at room temperature for 15 min, washed three with phosphate-buffered saline, in 0.1% Triton X-100 for 15 min, washed with phosphate-buffered saline, and blocked for 1 h with phosphate-buffered saline containing 7.5% fetal calf serum. Primary antibodies were added, and the slides incubated overnight at 4° C. Cells were then washed three times with phosphate-buffered saline and incubated 1 h with the appropriate Alexa Flour fluorescence probe-conjugated secondary antibody. After additional washing, the cells were stained with DAPI for 10 min prior to imaging.

A375-PLX-R cells [4] = experiment: Immunoblot of ERK1/2 activity in A375-PLX-R cells; assay type: cell-based; settings: TEAD intact versus knockdown, FIG. 3F
Protocol: as §2

tumor-derived A375 cells = experiment: Matrigel invasion of tumor-derived A375 cells; assay type: cell-based; settings: sensitive (A375) cells, invasion assayed without drug, FIG. 6G
Protocol: (§3) Tumors were initiated and treated with PLX4032 or verteporfin as above. At 4 weeks, the tumors were removed, mechanically dissociated and dispersed as single cell suspensions with 0.25% trypsin for 10 min and plated as monolayer cultures. After 24 h, the cells were harvested and seeded at 25,000 cells/well atop a 0.1 ml matrigel layer in Millicell (1 cm diameter, […]) chambers in the presence of a serum gradient (38). After 18 h, the membranes were stained with DAPI and the nuclei of migrated cells were visualized by inverted fluorescence microscopy (38).

[5] = test system: tumor-derived A375-PLX-R cells; experiment: Matrigel invasion of tumor-derived A375-PLX-R cells; assay type: cell-based; settings: resistant (A375-PLX-R) cells, invasion assayed without drug, FIG. 6G
Protocol: as §3

A375 cells [6] = experiment: Immunofluorescence of YAP1/TAZ subcellular distribution; assay type: cell-based; settings: control versus PLX4032-treated A375 cells, FIG. 2D
Protocol: as §2

[7] = test system: YAP1, TAZ and TEAD in A375 and A375-PLX-R cells; experiment: YAP1/TAZ/TEAD mRNA and protein level after verteporfin, monolayer cells; assay type: cell-based
Protocol: as §2
Total RNA was isolated using Illustra RNAspin mini kit (GE Healthcare), and 1 μg of RNA was used for cDNA synthesis. Gene expression was measured by real time PCR using Light Cycler 480 SYBR Green I Master Mix (04-707 516 001) from Roche Diagnostics (Indianapolis, Ind.). The signals were normalized using cyclophilin A control primers. The gene specific primers used for detection of mRNA levels were as follows: cyclophilin A (forward, 5′-[…] (SEQ ID NO: 3); reverse, 5′-[…] (SEQ ID NO: 4)), TAZ (forward, 5′-GTATCCCAGCCAATC TCG (SEQ ID NO: 5); reverse, 5′-TTCTGAGTGGGGTGGTTC (SEQ ID NO: 6)) and YAP1 (forward, 5′-[…] (SEQ ID NO: 7); reverse, 5′-[…], (SEQ ID NO: 8)) (11).
To understand the mechanism of verteporfin action, monolayer A375 and A375-PLX-R cells were treated with […] verteporfin for 24 h and the impact on YAP1/TAZ mRNA and protein level was monitored. […] The proteasome is known to regulate YAP1/TAZ level (29,30) and so whether the proteasome was responsible for the observed reductions was examined.

[8] = test system: melanoma cell tumor formation (MCS cells); experiment: Tumor xenograft assay, verteporfin alone (FIGS. 6D-6F); assay type: in vivo, NSG mice; settings: verteporfin intraperitoneal, tumor cell line not stated
Protocol: Cells were grown for ten days as spheroids and a single cell suspension, prepared by trypsin digestion, was resuspended in phosphate buffered saline containing 30% Matrigel and 100 μl containing 0.1 million cells were injected subcutaneously at the two front flanks of NOD/scid/IL2 receptor gamma-knockout mice (NSG mice) using a 26.5 gauge needle. PLX4032 was dissolved in phosphate-buffered saline containing 10% DMSO and delivered at 20 mg/kg by oral gavage in […] three times per week (M/W/F). Verteporfin was dissolved in phosphate-buffered saline containing 10% DMSO and 0-100 mg/kg was delivered by intraperitoneal injection of […] three times per week (M/W/F). Five mice were used per group (two tumors per mouse) and treatment was initiated two days after tumor cell injection. Tumor growth was monitored by measuring tumor diameter and calculating tumor volume using the formula, volume=4/3π×(diameter/2)^3. Mice were euthanized by injection of 250 μl of a 2.5% stock of Avertin per mouse followed by cervical dislocation of the neck. Tumor samples were harvested to prepare extract for immunoblot and sections for immunostaining. These experiments were reviewed and approved by the University of Maryland-Baltimore Institutional Animal Care and Use Committee. The plotted values are mean±SEM and significance were determined using the students t-test.

Compound: CCCS(=O)(=O)Nc1ccc(F)c(C(=O)c2c[nH]c3ncc(-c4ccc(Cl)cc4)cc23)c1F [PLX4032]
- A375 cell proliferation (A375 cells [1]): reduces
- proliferation of A375-PLX-R cells (A375-PLX-R cells [2]): not suppressed
- apoptosis (cleaved PARP accumulation, procaspase 8 and 9 levels) (A375 cells [3]): enhances
- cyclin B and cyclin A level (A375 cells [3]; FIGS. 3A-3B): reduced
- p21Cip1 and p27 level (A375 cells [3]; FIGS. 3A-3B): increased
- ERK1/2 signaling / phosphorylation (A375 cells [3]; FIGS. 3A-3B, 3F): suppressed; also recorded: reduced
- ERK1/2 activity (A375-PLX-R cells [4]): only reduced in A375-PLX-R cells following TEAD knockdown and PLX4032 treatment
- matrigel invasion of tumor-derived cells after in vivo treatment (tumor-derived A375 cells): does not suppress
- matrigel invasion of tumor-derived cells after in vivo treatment [5]: does not suppress
- YAP1 intracellular distribution (A375 cells [6]): no major change

Compound: verteporfin
- level of YAP1 or TAZ mRNA ([7]; 1 mM verteporfin, 24 h, monolayer, FIG. 4F): did not impact
- YAP1 and TAZ protein levels ([7]; 1 mM verteporfin, 24 h, monolayer, FIG. 4G): reduced
- TEAD transcription factor levels ([7]; verteporfin treatment, FIG. 4H): reduced
- YAP1 and TAZ level in tumors ([8]; FIG. 6F): suppressed
- tumor size / tumor formation ([8]; FIGS. 6D-6E): reduced
